Assay results as given in PMC10433847, “The Plasmodium Lactate/H^+ Transporter PfFNT Is Essential and Druggable In Vivo” (Antimicrobial Agents and Chemotherapy, 2023).

Assays:
[1] = tested on: P. berghei; assay: 4-day Peters' test, P. berghei-infected mouse malaria model; type: in vivo; details: for Activity (%) / Survival / Parasite-free mice (n/total): once per day on 4 consecutive days
Method: Finally, we tested BH267.meta in vivo in a P. berghei-infected mouse malaria model. For comparison, we included the established antimalarials chloroquine, mefloquine, and artesunate in the assay. Efficacy was determined by a 4-day Peters’ test ([20], [21]) after oral administration of 30, 10, and 3 mg kg^−1 day^−1 for each antimalarial for four consecutive days. At 4 × 3 mg kg^−1 treatment with BH267.meta, parasitemia was at 0.2% after 4 days, while doses of 10 mg kg^−1 and higher decreased the parasitemia below the limit of quantitation (LOQ) of 0.1%. […] Artesunate yielded lower activity at 4 × 3 mg kg^−1. The average survival after BH267.meta treatment was similar to that after artesunate treatment and ranged from 8.0 d (3 mg kg^−1) to 13.0 d (30 mg kg^−1) due to recurring parasitemia (Table 1).
(§1) In vivo efficacy of BH267.meta against P. berghei was determined as previously described ([20], [21]). Mice were infected with a GFP-transfected P. berghei ANKA strain (donated by A. P. Waters and C. J. Janse, Leiden University, Leiden, The Netherlands), and parasitemia was determined using standard flow cytometry techniques. The detection limit was 0.1%, i.e., 1 parasite in 1,000 erythrocytes. Activity was calculated as the difference between the mean parasitemia for the control and treated groups (n = 3, each) expressed relative to the control group. BH267.meta was dissolved (3 mg kg ^−1 doses) or suspended (all higher doses) in 70/30 Tween 80/ethanol, diluted 10-fold with water, and administered orally as four consecutive daily doses (4, 24, 48, and 72 h after infection). […] different doses of BH267.meta were analyzed (30, 10, and 3 mg kg ^−1). In vivo efficacy against P. falciparum was conducted at The Art of Discovery, Derio, Spain according to the standard assay previously described ([22], [23]). Animal experiments against P. berghei were carried out at the Swiss Tropical and Public Health Institute and adhered to local and national regulations of laboratory animal welfare in Switzerland (awarded permission no. 1731). Protocols are regularly reviewed and revised following approval by the local authority (Veterinäramt Basel Stadt).

[2] = tested on: P. falciparum parasites with PfFNT G21E mutation; assay: EC50 determination by flow cytometry, drug-selected parasites with PfFNT G21E; type: cell-based, Plasmodium falciparum; details: parasites with G21E amino acid change vs 3D7 wild-type
Method: (§2) P. falciparum parasites, 3D7, were cultured in RPMI 1640 medium supplemented with 0.5% Albumax with 0+ erythrocytes (University Medical Center Hamburg-Eppendorf, Hamburg, Germany) at a 5% hematocrit at 37°C in an atmosphere containing 5% CO2, 1% O2, and 94% N2 under standard conditions ([31]). To obtain resistant parasites, 50 mL of parasite culture, starting with 5 × 10^8 to 6 × 10^8 parasites, were exposed to 3 × IC50 of either MMV007839 or BH267.meta until parasitemia was established again (around 2 weeks). For sequencing of the fnt gene, genomic DNA from the susceptible and resistant P. falciparum parasite lines was obtained from 5 mL of culture using the QIAamp DNA minikit (Qiagen, Hilden, Germany). The primer sequences used to sequence the entire fnt gene are available in Table S2. To determine the EC50, asynchronous parasites (0.5% to 1% starting parasitemia) were exposed to serial dilutions of the drug and grown for 2 days with one change of medium (including the appropriate concentration of drug), after which the parasitemia was determined using an LSR II FACS (BD Biosciences, Franklin Lakes, NJ) as previously described ([32]). The data were analyzed in GraphPad Prism to determine EC50 values.

[3] = tested on: P. falciparum 3D7 blood stages; assay: Stage-specific action of BH267.meta on synchronized parasites; type: cell-based, Plasmodium falciparum; details: IC90 of BH267.meta added at ring, trophozoite or schizont stage
Method: Asynchronous cultures containing ~2% schizonts were purified using a 60% Percoll gradient and split into 4 tubes containing […] fresh blood and culture medium, shaken at 37°C for 30 min at 800 rpm to permit newly released merozoites to invade red blood cells, and then transferred into four 5-mL culture dishes. […] The cultures were maintained with daily medium changes and replenishment of IC90 BH267.meta when drug treatment had already commenced for a culture. Giemsa smear and flow cytometry were performed as described previously ([32]), and samples were taken at regular intervals (daily or every 12 h).

[4] = tested on: P. falciparum parasite culture; set-up: method as in PMID 32816478; details: read-out: effectiveness in parasite culture; cited from earlier work
[5] = tested on: P. falciparum; assay: P. falciparum SCID mouse model; type: in vivo; details: 50 mg kg−1 d−1 oral for four consecutive days, single animal; LOQ 0.01%
Method: In addition to the P. berghei efficacy assessment, we also evaluated BH267.meta in a P. falciparum severe combined immunodeficient (SCID) mouse model as previously described ([22], [23]). Efficacy was assessed following administration of 50 mg kg^−1 d^−1 for four consecutive days to a single animal (Fig. 7).
as §1, with “Animal experiments against P. berghei were carried out at the Swiss Tropical and Public Health Institute and adhered to local and national regulations of laboratory animal welfare in Switzerland (awarded permission no. 1731). Protocols are regularly reviewed and revised following approval by the local authority (Veterinäramt Basel Stadt).” left out

[6] = tested on: P. falciparum parasites with PfFNT V196L mutation; assay: EC50 determination by flow cytometry, drug-selected parasites with PfFNT V196L; type: cell-based, Plasmodium falciparum; details: V196L mutation vs 3D7 wild-type
Method: as §2

Row | Structure (SMILES) | Activity (%) ([1]; 3 mg kg−1 day−1 oral) | Survival ([1]; 3 mg kg−1 day−1 oral) | Activity (%) ([1]; 10 mg kg−1 day−1 oral) | Survival ([1]; 10 mg kg−1 day−1 oral) | Activity (%) ([1]; 30 mg kg−1 day−1 oral) | Survival ([1]; 30 mg kg−1 day−1 oral) | reduction in sensitivity compared to the 3D7 parasites [2] | parasitemia after 4 days ([1]; 4 × 3 mg kg−1 oral) | efficacy ([1]; all tested doses (30, 10, 3 mg kg−1 day−1, 4 days oral)) | parasitemia ([1]; doses of 10 mg kg−1 and higher, 4 days oral, LOQ 0.1%) | symptoms or side effects elicited by the compound ([1]; mice under treatment, 3-30 mg kg−1 day−1 oral for 4 days) | activity in mice ([1]; mouse malaria models) | blood stage affected [3] | EC50 [4] | parasitemia [5] | fold increased IC50 [6] | Parasite-free mice (n/total) ([1]; 10 mg kg−1 day−1 oral) | Parasite-free mice (n/total) ([1]; 30 mg kg−1 day−1 oral)
1 | C[C@H]1[C@H](OC(=O)CCC(=O)O)O[C@@H]2O[C@@]3(C)CC[C@H]4[C@H](C)CC[C@@H]1[C@@]24OO3 [Artesunate, artesunate] | 85.0% | 8.8 days | 99.1% | 8.1 days | 99.0% | 9.2 days |  |  |  |  |  |  |  |  |  |  |  | 
2 | O=C(/C=C(\O)C(F)(F)C(F)(F)F)c1cccnc1 [BH267.meta] | 99.7% | 8.0 days | 99.9% | 10.7 days | 99.8% | 13.0 days | no alteration in the response | 0.2% | ≥ 99.7% | < 0.1% | free of symptoms or side effects | > 99% | specifically affects the trophozoite stage | 240 nM | < 0.01% |  |  | 
3 | COc1ccc(C(=O)/C=C(\O)C(F)(F)C(F)(F)F)cc1 [BH296] |  |  |  |  |  |  | 3.0 fold |  |  |  |  |  |  |  |  | 7.4 fold |  | 
4 | CCN(CC)CCCC(C)Nc1ccnc2cc(Cl)ccc12 (centres unmarked) [Chloroquine, chloroquine] | 99.0% | 11.0 days | 99.9% | 15.5 days | 99.9% | 21.2 days |  |  |  |  |  |  |  |  |  |  |  | 
5 | COc1ccc2c(c1)OC(O)(C(F)(F)C(F)(F)F)CC2=O (centres unmarked) [MMV007839] |  |  |  |  |  |  | 8.4 fold |  |  |  |  |  |  |  |  |  |  | 
6 | OC(c1cc(C(F)(F)F)nc2c(C(F)(F)F)cccc12)C1CCCCN1 (centres unmarked) [Mefloquine, mefloquine] | 93.0% | 13.0 days | 99.9% | 21.0 days | 99.9% | 29.1 days |  |  |  |  |  |  |  |  |  |  | 1/5 | 4/5
